According to US8163718B2, “Nucleoside analogues containing phosphonate or phosphonamide groups” (Gilead Sciences, Inc., priority 2008, dated 2012):

Legend:
Experiment in all cases: Cytostatic cell culture assay (GI50), SRB
Type in all cases: cell-based
Settings in all cases: 5 days incubation
Du-145 = test system: Du-145
Text: (§1) The assay is based on quantification of cell counts by a colorimetric detection of the cell associated proteins. The assay relies on the ability of sulforhodamine B (SRB) to bind to protein components of cells that have been fixed to tissue-culture plates by trichloroacetic acid (TCA). SRB is a bright-pink aminoxanthene dye with two sulfonic groups that bind to basic amino-acid residues under mild acidic conditions, and dissociate under basic conditions. As the binding of SRB is stoichiometric, the amount of dye extracted from stained cells is directly proportional to the cell mass.
(§2) Cell lines: All cell lines were obtained from ATCC (Manassas, Va.). Cultivation media containing Glutamax, and trypsin were purchased from Invitrogen (Carlsbad, Calif.). Doxorubicin, Clofarabine, TCA and SRB were from Sigma-Aldrich (St. Louis, Mo.). Gemcitabine was obtained from Moravek Biochemicals (Brea, Calif.)
(§3) • 1. Trypsinize the sub-confluent cells, count them, and adjust the cell concentrations according to the cell counts listed in Table 1. • 2. Distribute the cells into the 96-well plates in 150 μL of media. Incubate the plates overnight in humidified CO2 incubator at 37° C. • 3. Fix one plate of each cell line with TCA. Discard the cultivation media from the plates by flicking them gently and add 100 ul cold 10% (vol/vol) TCA to each well. Incubate the plates at 4 degree refrigerator for 1 hour. Discard TCA from the plates by flicking them gently. Rinse plates four times in a washing basin containing tap water. Store the plates at room temperature. These plates represent cell counts on day zero. • 4. Prepare a set of medium solutions containing various concentrations of tested compounds by making 5-fold serial dilutions in 96-well plate. Add 50 μL of the diluted compounds per well. Include controls with untreated cells and cells treated with doxorubicin, clofarabine and gemcitabine. • 5. Incubate the plates for 5 days at 37° C. • 6. Fix the plates with TCA. Discard the cultivation media from the plates by flicking them gently and add 100 ul cold 10% (vol/vol) TCA to each well. Incubate the plates at 4 degree refrigerator for 1 hour. Discard TCA from the plates by flicking them gently. Rinse plates four times in a washing basin containing tap water. • 7. Remove excess water by tapping the plates face down, gently on a paper towel. Allow the plates to air-dry at room temperature. • 8. Add 100 ul of 0.057% SRB solution in 1% (vol/vol) acetic acid to each well of the plates fixed with TCA on day zero and five. Leave at room temperature for 30 minutes. • 9. Flick the plates gently to discard SRB. Rinse the plates four times with 1% (vol/vol) Acetic Acid. • 10. Store the plates at 37 degree incubator to facilitate faster drying. • 11. Once the plates are completely dry, add 200 ul of 10 mM Tris base solution (pH 10.5) to each well. Leave at room temperature for 30 minutes for SRB to solubilize. • 12. Measure the OD at 500 nm in a microplate reader • 13. Calculate the percentage of cell-growth inhibition using the next formula: % of control cell growth=100×(ODsample−mean ODday0)/(ODneg control−mean ODday0)
(§4) For GI50 determination, plot a dose-response curve between the compound concentration and percent of growth inhibition. GI50 values can be derived by fitting dose-response curves using sigmoidal dose response equation.

HCT-15 = test system: HCT-15
Text: as §1, §2, §3, §4

A549 = test system: A549
Text: as §1, §2, §3, §4

BT-549 = test system: BT-549
Text: as §1, §2, §3, §4

NCI-H23 = test system: NCI-H23
Text: as §1, §2, §3, §4

PC3 = test system: PC3
Text: as §1, §2, §3, §4

Hs-578 = test system: Hs-578
Text: as §1, §2, §3, §4

HCT-116 = test system: HCT-116
Text: as §1, §2, §3, §4

Row | Structure (SMILES) | GI50 (Du-145; Homo sapiens, DU-145, 120 h) | GI50 (HCT-15; Homo sapiens, HCT-15, 120 h) | GI50 (A549; Homo sapiens, A549, 120 h) | GI50 (BT-549; Homo sapiens, BT-549, 120 h) | GI50 (NCI-H23; Homo sapiens, NCI-H23, 120 h) | GI50 (PC3; Homo sapiens, PC-3, 120 h) | GI50 (Hs-578; Hs578, 120 h) | GI50 (HCT-116; Homo sapiens, HCT-116, 120 h) | GI50 (Du-145) | GI50 (HCT-15) | GI50 (A549) | GI50 (BT-549) | GI50 (NCI-H23) | GI50 (PC3) | GI50 (Hs-578) | GI50 (HCT-116)
1 | CCOC(=O)[C@H](C)NP(=O)(COCCn1cnc2c(OC3CCCCC3)nc(N)nc21)N[C@@H](C)C(=O)OCC [Example 39] | 0.102 µM | > 10 µM | 3.19 µM | 2.65 µM | 0.198 µM | 0.141 µM | 0.697 µM | 1.48 µM |  |  |  |  |  |  |  | 
2 | CCCCOC(=O)[C@H](C)NP(=O)(COCCn1cnc2c(OC(C)C)nc(N)nc21)N[C@@H](C)C(=O)OCCCC [Example 34] | 0.004 µM | 2.65 µM | 0.041 µM | 0.195 µM | 0.005 µM | 0.021 µM | 0.031 µM | 0.055 µM |  |  |  |  |  |  |  | 
3 | Nc1nc(OC2CCC2)c2ncn(CCOCP(=O)(O)O)c2n1 [Example 9, [2-(2-Amino-6-cyclobutoxy-purin-9-yl)-ethoxymethyl]-phosphonic acid] | 0.077 µM | 1.22 µM | 1.83 µM | 1.55 µM | 0.359 µM | 0.955 µM | 1.55 µM | 1.72 µM |  |  |  |  |  |  |  | 
4 | CCCCOC(=O)[C@H](Cc1ccccc1)NP(=O)(COCCn1cnc2c(OCCC)nc(N)nc21)N[C@@H](Cc1ccccc1)C(=O)OCCCC [Example 17] | 0.001 µM | 0.336 µM | 0.005 µM | 0.017 µM | 0.002 µM | 0.006 µM | 0.005 µM | 0.004 µM |  |  |  |  |  |  |  | 
5 | CCOC(=O)[C@@H]1CCCC1P(=O)(COCCn1cnc2c(OC3CC3)nc(N)nc21)N1CCC[C@H]1C(=O)OCC (stereo partly drawn) [Example 44] | 0.003 µM | 9.1 µM | 1.25 µM | 0.016 µM | 0.227 µM | 0.183 µM | 0.026 µM | 0.154 µM |  |  |  |  |  |  |  | 
6 | CCCCOC(=O)[C@H](Cc1ccccc1)NP(=O)(COCCn1cnc2c(OC)nc(N)nc21)N[C@@H](Cc1ccccc1)C(=O)OCCCC [Example 31] | 0.001 µM | 0.604 µM | 0.006 µM | 0.02 µM | 0.002 µM | 0.016 µM | 0.005 µM | 0.006 µM |  |  |  |  |  |  |  | 
7 | CCOC(=O)[C@H](C)NP(=O)(COCCn1cnc2c(OCC)nc(N)nc21)N[C@@H](C)C(=O)OCC [Example 37] | 0.023 µM | > 10 µM | 0.458 µM | 0.292 µM | 0.031 µM | 0.146 µM | 0.198 µM | 0.509 µM |  |  |  |  |  |  |  | 
8 | CCCOc1nc(N)nc2c1ncn2CCOCP(=O)(Oc1ccccc1)N1CCC[C@H]1C(=O)OCC (stereo partly drawn) [Example 57] | 0.372 µM | 5.2 µM | 2.42 µM | 1.12 µM | 0.241 µM | 0.696 µM | 1.11 µM | 1.61 µM |  |  |  |  |  |  |  | 
9 | CCCOc1nc(N)nc2c1ncn2CCOCP(=O)(N[C@@H](C)C(=O)OC(C)C)N[C@@H](C)C(=O)OC(C)C [Example 16] | 0.067 µM | > 10 µM | 0.736 µM | 1.83 µM | 0.092 µM | 0.591 µM | 0.87 µM | 1.32 µM |  |  |  |  |  |  |  | 
10 | COCCOc1nc(N)nc2c1ncn2CCOCP(=O)(O)O [Example 11, {2-[2-Amino-6-(2-methoxy-ethoxy)-purin-9-yl]-ethoxymethyl}-phosphonic acid] | 0.805 µM | > 10 µM | 11 µM | > 10 µM | 1.98 µM | 3.76 µM | 5.1 µM | 11 µM |  |  |  |  |  |  |  | 
11 | CCCOc1nc(N)nc2c1ncn2CCOCP(=O)(N1CCC[C@H]1C(=O)OCc1ccccc1)N1CCC[C@H]1C(=O)OCc1ccccc1 [Example 20] | 0.027 µM | 2.35 µM | 0.53 µM | 0.167 µM | 0.03 µM | 0.111 µM | 0.132 µM | 0.264 µM |  |  |  |  |  |  |  | 
12 | CCCCCOc1nc(N)nc2c1ncn2CCOCP(=O)(O)O [Example 7, [2-(2-Amino-6-pentyloxy-purin-9-yl)-ethoxymethyl]-phosphonic acid] | 0.101 µM | 2.61 µM | 3.36 µM | 2.57 µM | 0.596 µM | 0.595 µM | 1.57 µM | 2.45 µM |  |  |  |  |  |  |  | 
13 | CCCCCCOC(=O)[C@@H]1CCCN1P(=O)(COCCn1cnc2c(OCCC)nc(N)nc21)N1CCC[C@H]1C(=O)OCCCCCC [Example 26] | 0.002 µM | 1.95 µM | 1.05 µM | 0.067 µM | 0.009 µM | 0.081 µM | 0.097 µM | 0.119 µM |  |  |  |  |  |  |  | 
14 | COc1nc(N)nc2c1ncn2CCOCP(=O)(OCOC(=O)OC(C)C)OCOC(=O)OC(C)C [Example 60] | 0.002 µM | 0.766 µM | 0.091 µM | 0.042 µM | 0.005 µM | 0.052 µM | 0.022 µM | 0.079 µM |  |  |  |  |  |  |  | 
15 | Nc1nc(OC2CCCC2)c2ncn(CCOCP(=O)(O)O)c2n1 [Example 10, [2-(2-Amino-6-cyclopentyloxy-purin-9-yl)-ethoxymethyl]-phosphonic acid] | 0.054 µM | 2.38 µM | 3.06 µM | 2.99 µM | 0.603 µM | 1.01 µM | 2.26 µM | 1.79 µM |  |  |  |  |  |  |  | 
16 | CCCOc1nc(N)nc2c1ncn2CCOCP(=O)(N[C@@H](C)C(=O)OCC)Oc1ccccc1 (single isomer, unassigned) [Example 53b] |  |  |  |  |  |  |  |  | 0.014 µM | 2.04 µM | 0.647 µM | 0.564 µM | 0.07 µM | 0.18 µM | 0.177 µM | 0.329 µM
17 | CCCOc1nc(N)nc2c1ncn2CCOCP(=O)(N[C@@H](C)C(=O)OCC)Oc1ccccc1 (single isomer, unassigned) [Example 53a] |  | 2.11 µM |  |  |  |  |  |  | 0.002 µM |  | 0.268 µM | 0.249 µM | 0.005 µM | 0.031 µM | 0.062 µM | 0.154 µM
18 | CCOC(=O)[C@@H]1CCCN1P(=O)(COCCn1cnc2c(OC3CCCCC3)nc(N)nc21)N1CCC[C@H]1C(=O)OCC [Example 40] | 0.074 µM | > 10 µM | 8.8 µM | 1.78 µM | 0.252 µM | 0.109 µM | 0.276 µM | 2.44 µM |  |  |  |  |  |  |  | 
19 | Nc1nc(NC2CC2)c2ncn(CCOCP(=O)(N3CCC[C@H]3C(=O)OCc3ccccc3)N3CCC[C@H]3C(=O)OCc3ccccc3)c2n1 [Example 51] | 0.256 µM | 8.5 µM | 1.67 µM | 0.527 µM | 0.263 µM | 0.214 µM | 0.096 µM | 0.85 µM |  |  |  |  |  |  |  | 
20 | CCCOc1nc(N)nc2c1ncn2CCOCP(=O)(N[C@@H](C)C(=O)OC(C)C)Oc1ccccc1 (stereo partly drawn) [Example 54] | 0.065 µM | 2.77 µM | 0.317 µM | 1.77 µM | 0.067 µM | 0.472 µM | 0.894 µM | 0.84 µM |  |  |  |  |  |  |  | 
21 | CCCCOC(=O)[C@H](C)NP(=O)(COCCn1cnc2c(OCCCC)nc(N)nc21)N[C@@H](C)C(=O)OCCCC [Example 36] |  | 0.869 µM | 0.013 µM | 0.12 µM | 0.002 µM | 0.003 µM | 0.011 µM | 0.007 µM |  |  |  |  |  |  |  | 
22 | CCCCOC(=O)[C@H](C)NP(=O)(COCCn1cnc2c(OC3CC3)nc(N)nc21)N[C@@H](C)C(=O)OCCCC [Example 43] |  | 1.52 µM | 0.102 µM | 0.017 µM | 0.001 µM | 0.032 µM | 0.032 µM | 0.011 µM |  |  |  |  |  |  |  | 
